Blank lines part the entries; values can stand above or below the molecule they belong to.
Key:
[1] = molecular target: T1, 3-oxo-5-alpha-steroid 4-dehydrogenase 2 (Homo sapiens, UniProt P31213); assay: Inhibitory concentration on human prostatic 5-alpha reductase 2 isozyme
T1 sequence (P31213 whole entry): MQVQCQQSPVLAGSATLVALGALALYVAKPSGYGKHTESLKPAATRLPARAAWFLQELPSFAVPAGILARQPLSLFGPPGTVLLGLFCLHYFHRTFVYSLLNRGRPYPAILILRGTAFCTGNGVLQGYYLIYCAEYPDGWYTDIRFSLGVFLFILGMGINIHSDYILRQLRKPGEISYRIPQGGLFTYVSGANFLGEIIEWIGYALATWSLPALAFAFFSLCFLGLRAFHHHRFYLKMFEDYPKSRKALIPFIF

[2] = molecular target: T2, Alpha-1D adrenergic receptor (Homo sapiens, UniProt P25100); assay: Binding affinity was tested on human Alpha-1D adrenergic receptor
T2 sequence (P25100 whole entry): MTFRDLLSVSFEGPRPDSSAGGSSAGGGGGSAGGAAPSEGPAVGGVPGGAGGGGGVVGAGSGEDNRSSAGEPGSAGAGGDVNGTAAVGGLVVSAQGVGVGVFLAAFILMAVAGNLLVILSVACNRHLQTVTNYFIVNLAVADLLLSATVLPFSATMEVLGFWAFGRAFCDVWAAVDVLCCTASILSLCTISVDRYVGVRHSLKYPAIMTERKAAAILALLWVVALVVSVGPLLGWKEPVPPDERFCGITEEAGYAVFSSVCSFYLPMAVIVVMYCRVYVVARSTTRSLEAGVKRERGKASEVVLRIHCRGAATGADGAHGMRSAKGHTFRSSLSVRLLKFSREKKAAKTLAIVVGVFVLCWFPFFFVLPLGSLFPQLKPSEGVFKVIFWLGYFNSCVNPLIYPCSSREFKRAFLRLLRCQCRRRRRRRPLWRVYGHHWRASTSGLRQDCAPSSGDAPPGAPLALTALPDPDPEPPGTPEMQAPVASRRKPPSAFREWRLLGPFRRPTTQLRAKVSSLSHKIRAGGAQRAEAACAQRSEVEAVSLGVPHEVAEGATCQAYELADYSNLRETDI

Canis familiaris [3] = assay: 50% reduction in agonist induced pressor response in anesthetized dog; assay type: functional; conditions: Canis lupus familiaris; read-out: ID50 (the source's name)
Canis familiaris [4] = assay: 50% reduction in intraurethral pressure (IUP) in response to hypogastric nerve stimulation or agonist (phenylephrine or norepinephrine) administration in anesthetized dog; assay type: functional; conditions: Canis lupus familiaris; read-out: ID50 (the source's name)
[5] = molecular target: T3, Steroid 5-alpha-reductase (Rattus norvegicus, UniProt P24008+P31214); assay: Apparent binding affinity on rat 5-alpha reductase isozyme; assay type: protein assay
T3 sequence (P24008 whole entry): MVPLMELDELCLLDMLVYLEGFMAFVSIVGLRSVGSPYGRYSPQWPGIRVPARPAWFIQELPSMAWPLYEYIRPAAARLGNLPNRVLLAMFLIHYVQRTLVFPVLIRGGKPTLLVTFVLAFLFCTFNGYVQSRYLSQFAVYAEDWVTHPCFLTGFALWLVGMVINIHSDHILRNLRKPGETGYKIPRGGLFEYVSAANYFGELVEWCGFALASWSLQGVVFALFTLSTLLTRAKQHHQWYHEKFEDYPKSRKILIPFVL
T3 sequence (P31214 whole entry): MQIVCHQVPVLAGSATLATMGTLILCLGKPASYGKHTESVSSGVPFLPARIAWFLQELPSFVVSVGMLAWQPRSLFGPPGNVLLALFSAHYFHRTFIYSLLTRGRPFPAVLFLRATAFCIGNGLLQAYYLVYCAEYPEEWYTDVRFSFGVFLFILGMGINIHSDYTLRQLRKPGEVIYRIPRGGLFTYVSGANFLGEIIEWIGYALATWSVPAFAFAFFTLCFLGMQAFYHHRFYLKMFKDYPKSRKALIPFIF

[6] = Apparent binding affinity on human 5-alpha reductase isozyme
[7] = Inhibitory concentration on human 5-alpha reductase isozyme
[8] = molecular target: T3, Steroid 5-alpha-reductase; assay: Inhibition of rat 5-alpha reductase isozyme.; assay type: protein assay
[9] = molecular target: T4, Alpha-1B adrenergic receptor (Homo sapiens, UniProt P35368); assay: Binding affinity was tested on human Alpha-1B adrenergic receptor
T4 sequence (P35368 whole entry): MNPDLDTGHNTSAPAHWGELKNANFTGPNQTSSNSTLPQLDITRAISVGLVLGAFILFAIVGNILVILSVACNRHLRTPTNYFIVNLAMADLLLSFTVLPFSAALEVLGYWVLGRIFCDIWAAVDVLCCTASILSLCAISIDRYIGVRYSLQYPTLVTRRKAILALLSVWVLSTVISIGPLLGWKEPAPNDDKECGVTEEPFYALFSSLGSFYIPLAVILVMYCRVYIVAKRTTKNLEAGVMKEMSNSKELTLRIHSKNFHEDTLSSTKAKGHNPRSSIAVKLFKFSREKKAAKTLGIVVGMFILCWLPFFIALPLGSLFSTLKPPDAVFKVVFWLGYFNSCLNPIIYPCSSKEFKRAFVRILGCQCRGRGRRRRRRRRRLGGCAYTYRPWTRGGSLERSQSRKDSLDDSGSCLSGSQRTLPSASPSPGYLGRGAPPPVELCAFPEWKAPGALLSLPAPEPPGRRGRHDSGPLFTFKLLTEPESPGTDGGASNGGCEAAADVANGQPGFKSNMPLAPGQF

[10] = molecular target: T5, Alpha-1A adrenergic receptor (Rattus norvegicus, UniProt P43140); assay: Binding affinity was tested on CEC-pretreated rat hippocampus Alpha-1A adrenergic receptor; assay type: tissue-based
T5 sequence (P43140 whole entry): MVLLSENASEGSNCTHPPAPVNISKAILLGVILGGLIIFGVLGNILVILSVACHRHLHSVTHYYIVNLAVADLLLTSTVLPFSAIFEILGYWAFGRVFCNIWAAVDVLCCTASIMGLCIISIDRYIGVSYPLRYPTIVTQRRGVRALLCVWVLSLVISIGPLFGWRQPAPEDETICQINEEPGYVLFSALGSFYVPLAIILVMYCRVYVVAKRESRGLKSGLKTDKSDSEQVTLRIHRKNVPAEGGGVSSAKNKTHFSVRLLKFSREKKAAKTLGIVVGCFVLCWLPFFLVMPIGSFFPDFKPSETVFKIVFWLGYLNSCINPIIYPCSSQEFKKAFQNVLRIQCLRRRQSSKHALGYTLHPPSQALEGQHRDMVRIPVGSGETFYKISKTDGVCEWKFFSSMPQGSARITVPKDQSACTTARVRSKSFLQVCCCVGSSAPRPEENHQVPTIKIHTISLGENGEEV

[11] = molecular target: T6, Alpha-1B adrenergic receptor (Rattus norvegicus, UniProt P15823); assay: Binding affinity was tested on CEC-pretreated rat liver Alpha-1B adrenergic receptor
T6 sequence (P15823 whole entry): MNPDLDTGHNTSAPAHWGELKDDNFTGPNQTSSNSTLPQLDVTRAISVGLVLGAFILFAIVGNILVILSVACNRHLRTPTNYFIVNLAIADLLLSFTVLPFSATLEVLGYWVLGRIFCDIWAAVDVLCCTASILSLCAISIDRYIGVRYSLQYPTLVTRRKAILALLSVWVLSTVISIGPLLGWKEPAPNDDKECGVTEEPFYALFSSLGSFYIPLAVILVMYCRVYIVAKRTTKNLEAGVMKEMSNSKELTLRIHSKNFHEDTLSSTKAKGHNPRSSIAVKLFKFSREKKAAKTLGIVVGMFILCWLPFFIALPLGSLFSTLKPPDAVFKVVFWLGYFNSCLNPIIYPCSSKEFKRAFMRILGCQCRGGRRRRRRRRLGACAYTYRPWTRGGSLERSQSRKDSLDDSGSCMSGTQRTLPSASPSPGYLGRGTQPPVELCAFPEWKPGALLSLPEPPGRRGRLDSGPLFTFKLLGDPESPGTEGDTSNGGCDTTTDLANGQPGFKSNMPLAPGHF

[12] = molecular target: T7, Adrenergic receptor alpha-1 (Homo sapiens, UniProt P35348+P25100+P35368); assay: pA2 for Alpha-1 adrenergic receptor from human prostate.; assay type: tissue-based, Prostate gland
T7 sequence (P35348 whole entry): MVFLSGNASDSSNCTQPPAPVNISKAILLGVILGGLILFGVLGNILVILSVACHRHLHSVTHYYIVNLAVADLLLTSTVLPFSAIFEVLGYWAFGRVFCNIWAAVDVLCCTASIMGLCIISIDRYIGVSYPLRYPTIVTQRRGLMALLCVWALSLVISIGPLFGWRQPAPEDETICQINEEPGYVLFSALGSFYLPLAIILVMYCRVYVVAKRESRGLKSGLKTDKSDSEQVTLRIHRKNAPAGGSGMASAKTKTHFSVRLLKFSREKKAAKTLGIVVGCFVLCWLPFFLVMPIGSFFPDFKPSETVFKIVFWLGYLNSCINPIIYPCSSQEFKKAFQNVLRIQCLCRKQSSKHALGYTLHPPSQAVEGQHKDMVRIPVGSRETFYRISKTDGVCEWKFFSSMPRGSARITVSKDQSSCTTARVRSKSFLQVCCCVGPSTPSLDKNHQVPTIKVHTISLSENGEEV
T7 sequence (P25100 whole entry): T2 sequence (P25100 whole entry)
T7 sequence (P35368 whole entry): T4 sequence (P35368 whole entry)

[13] = molecular target: T8, Alpha-1A adrenergic receptor (Homo sapiens, UniProt P35348); assay: Binding affinity was tested on human Alpha-1A adrenergic receptor
T8 sequence (P35348 whole entry): T7 sequence (P35348 whole entry)

- IC50 [1]: 1550 nM
SMILES: CC(C)NC(=O)N(C(=O)[C@H]1CCC2C3CCC4NC(=O)C=C[C@]4(C)C3CC[C@@]21C)C(C)C (stereo partly drawn)

- Ki [5]: 200 nM
- Ki [6]: 25 nM
SMILES: CC(C)N(C(=O)[C@H]1CCC2C3CC=C4C=C(P(=O)(O)O)CC[C@]4(C)C3CC[C@@]21C)C(C)C (stereo partly drawn)

- IC50 [7]: 12 nM
- IC50 [8]: 300 nM
SMILES: CC(C)N(C(=O)[C@H]1CCC2C3C=CC4=CC(C(=O)O)=CC[C@]4(C)C3CC[C@@]21C)C(C)C (stereo partly drawn)

- Ki [5]: 160 nM
- Ki [6]: 7 nM
SMILES: CC(C)N(C(=O)[C@H]1CCC2C3CC=C4C=C([PH](=O)O)CC[C@]4(C)C3CC[C@@]21C)C(C)C (stereo partly drawn)

- IC50 [7]: 26 nM
- IC50 [8]: 35 nM
SMILES: CC(C)N(C(=O)[C@H]1CC[C@H]2[C@@H]3CC[C@H]4C(F)=C(C(=O)O)CC[C@]4(C)[C@H]3CC[C@]12C)C(C)C

- IC50 [7]: 30 nM
- IC50 [8]: 70 nM
- Ki [5]: 70 nM
- Ki [6]: 30 nM
SMILES: CC(C)N(C(=O)[C@H]1CC[C@H]2[C@@H]3CCC4C=C(C(=O)O)CC[C@]4(C)[C@H]3CC[C@]12C)C(C)C (stereo partly drawn)

Second part, the molecule before the results:

SMILES: CC(C)NC(=O)N(C(=O)[C@H]1CCC2C3CCC4N(C)C(=O)C=C[C@]4(C)C3CC[C@@]21C)C(C)C (stereo partly drawn)
- IC50 [1]: 1220 nM

SMILES: COc1cc2nc(N3CCN(C(=O)C4CCCO4)CC3)nc(N)c2cc1OC (stereo not drawn) [TERAZOSIN]
- Ki [2]: 3.98 nM
- ED50 (Canis familiaris [3]): 0.085 mg/kg
- ED50 (Canis familiaris [4]): 101 µg/kg

SMILES: CC(C)NC(=O)N(C(=O)[C@H]1CCC2C3CCC4NC(=O)CC[C@]4(C)C3CC[C@@]21C)C(C)C (stereo partly drawn)
- IC50 [1]: 381 nM

SMILES: CCOc1ccccc1OCCN[C@H](C)Cc1ccc(OC)c(S(N)(=O)=O)c1 (stereo in doubt; form 1) [TAMSULOSIN]
- Ki [2]: 0.158 nM
- ED50 (Canis familiaris [3]): 0.001 mg/kg
- ED50 (Canis familiaris [4]): 2 µg/kg
- Ki [9]: 1.26 nM

SMILES: COc1ccccc1N1CCN(CCCNC(=O)c2cccc3c(=O)c(C)c(-c4ccccc4)oc23)CC1 [UPIDOSIN]
- IC50 [10]: 2 nM
- ED50 (Canis familiaris [3]): 0.109 mg/kg
- IC50 [11]: 24 nM
- ED50 (Canis familiaris [4]): 4 µg/kg

SMILES: COc1cc2nc(N3CCN(C(=O)c4ccco4)CC3)nc(N)c2cc1OC [PRAZOSIN]
- ED50 (Canis familiaris [3]): 0.011 mg/kg
- ED50 (Canis familiaris [4]): 12 µg/kg

SMILES: O=C(CCCN1CCC(NC(=O)c2ccccc2)CC1)c1ccccc1
- pA2 [12]: 7.9
- Ki [13]: 15.8 nM
- Ki [2]: 794 nM
- Ki [9]: 200 nM

SMILES: CN1C(=O)CC[C@]2(C)C3CC[C@@]4(C)C(CC[C@@H]4C(=O)N(C(=O)NC(C)(C)C)C(C)(C)C)C3CCC12 (stereo partly drawn)
- IC50 [1]: 212 nM

Reference: ChEMBL document CHEMBL1129998, “Pharmacological options in the treatment of benign prostatic hyperplasia” (J Med Chem, 1997)
